Experimental data from patent publication US11814367B2, “Inhibitors of glycogen synthase 1 (GYS1) and methods of use thereof” (Maze Therapeutics, Inc., priority 2021, dated 2023).

Assays:
[1] = target: hGYS1 enzyme (recombinant hGYS1/GN1 protein) (Homo sapiens (Human), UniProt P13807); test: GYS1 coupled enzyme assay (PK/LDH); type: biochemical; details: hGYS1/GN1 50 nM, UDP-Glucose 0.8 mM, G6P 1 mM; geometric mean of at least 2 runs
[2] = test system: hGYS1 enzyme / glycogen synthesis in HeLa cells; test: GYS1 cell based assay (glycogen synthesis, Glucose-glo); parameters: species or system human; details: 24 h incubation, 20 mM glucose, geometric mean of at least 2 runs
How it was run: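 HeLa cells starved 24 h in medium containing only 1× Glutamax were plated onto compound in medium with 20 mM glucose (1% DMSO final) for 24 h, 37 °C, 5% CO2. Acid lysates were Tris-quenched, glucoamylase-digested (pH 5.3, 1 h, 37 °C) and read by Glucose-glo luminescence. IC50 came from Hill fits, as geometric mean of ≥2 runs.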

[3] = target: hGYS2 enzyme (recombinant hGYS2/GN1 protein) (Homo sapiens (Human), UniProt P54840); test: GYS2 coupled enzyme assay (PK/LDH); type: biochemical; details: geometric mean of at least 2 assay runs on separate days, read-out: Avg_IC50
How it was run: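 Continuous PK/LDH-coupled readout of NADH loss at 340 nm over 10 min, with 200 nM hGYS2/GN1 and 2 mM each of UDP-glucose, glucose-6-phosphate and PEP, in 50 mM Tris pH 7.5 with 0.2% glycogen and 2.5% DMSO. Slopes were normalized to controls and IC50s fit to a Hill curve from duplicates.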

Chain of hGYS1 enzyme (recombinant hGYS1/GN1 protein) (P13807 whole entry): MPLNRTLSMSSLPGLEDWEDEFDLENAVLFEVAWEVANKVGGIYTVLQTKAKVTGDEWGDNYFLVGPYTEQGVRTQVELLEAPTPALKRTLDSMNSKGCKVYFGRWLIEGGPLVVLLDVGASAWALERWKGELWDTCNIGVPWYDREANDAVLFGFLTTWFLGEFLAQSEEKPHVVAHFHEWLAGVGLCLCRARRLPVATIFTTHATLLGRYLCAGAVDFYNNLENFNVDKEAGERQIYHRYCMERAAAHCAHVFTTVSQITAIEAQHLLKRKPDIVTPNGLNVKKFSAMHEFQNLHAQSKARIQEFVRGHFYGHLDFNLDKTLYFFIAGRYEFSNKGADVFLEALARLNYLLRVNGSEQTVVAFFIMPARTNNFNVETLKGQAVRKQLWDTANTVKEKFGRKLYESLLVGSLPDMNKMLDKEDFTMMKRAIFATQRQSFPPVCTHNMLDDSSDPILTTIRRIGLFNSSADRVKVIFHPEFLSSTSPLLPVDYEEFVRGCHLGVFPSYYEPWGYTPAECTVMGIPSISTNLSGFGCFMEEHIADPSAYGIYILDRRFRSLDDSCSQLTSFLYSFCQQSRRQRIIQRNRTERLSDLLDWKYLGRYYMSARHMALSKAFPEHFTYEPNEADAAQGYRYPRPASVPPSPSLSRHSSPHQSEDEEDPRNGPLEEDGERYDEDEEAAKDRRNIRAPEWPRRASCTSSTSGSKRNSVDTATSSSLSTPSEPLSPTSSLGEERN
Chain of hGYS1 enzyme (recombinant hGYS1/GN1 protein) (P46976 whole entry partner): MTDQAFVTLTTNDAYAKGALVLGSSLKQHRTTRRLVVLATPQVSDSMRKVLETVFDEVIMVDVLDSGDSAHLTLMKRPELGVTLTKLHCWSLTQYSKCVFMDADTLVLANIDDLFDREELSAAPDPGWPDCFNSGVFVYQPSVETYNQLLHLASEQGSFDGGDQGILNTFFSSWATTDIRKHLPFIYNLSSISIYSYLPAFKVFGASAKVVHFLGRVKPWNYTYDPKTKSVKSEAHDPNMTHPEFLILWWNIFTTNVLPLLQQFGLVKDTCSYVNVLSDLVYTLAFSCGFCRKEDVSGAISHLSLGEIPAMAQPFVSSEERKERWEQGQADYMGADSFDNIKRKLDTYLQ
Chain of hGYS2 enzyme (recombinant hGYS2/GN1 protein) (P54840 whole entry): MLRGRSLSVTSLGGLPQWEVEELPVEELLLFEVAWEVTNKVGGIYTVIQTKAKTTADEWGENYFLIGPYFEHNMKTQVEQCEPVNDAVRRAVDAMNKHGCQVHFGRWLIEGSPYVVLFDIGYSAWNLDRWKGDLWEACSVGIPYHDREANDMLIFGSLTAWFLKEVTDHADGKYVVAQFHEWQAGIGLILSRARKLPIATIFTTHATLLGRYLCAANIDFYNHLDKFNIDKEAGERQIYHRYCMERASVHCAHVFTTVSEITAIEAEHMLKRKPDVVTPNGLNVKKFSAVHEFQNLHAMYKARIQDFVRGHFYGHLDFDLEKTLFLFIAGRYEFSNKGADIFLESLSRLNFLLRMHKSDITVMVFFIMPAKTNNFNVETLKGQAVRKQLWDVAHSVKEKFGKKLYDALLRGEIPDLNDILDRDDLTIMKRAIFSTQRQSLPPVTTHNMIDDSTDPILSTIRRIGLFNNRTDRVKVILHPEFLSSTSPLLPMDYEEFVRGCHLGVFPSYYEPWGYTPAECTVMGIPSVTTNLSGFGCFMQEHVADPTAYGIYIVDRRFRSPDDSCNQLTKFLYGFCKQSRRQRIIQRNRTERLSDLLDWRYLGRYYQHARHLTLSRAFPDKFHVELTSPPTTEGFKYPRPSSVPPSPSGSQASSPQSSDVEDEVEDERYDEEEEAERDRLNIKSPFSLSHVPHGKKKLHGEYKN
Chain of hGYS2 enzyme (recombinant hGYS2/GN1 protein) (P46976 whole entry partner): as the sequence (P46976 whole entry partner) above

IC50 [1] [µM]	IC50 ([2]; Homo sapiens, HeLa, 24 h) [µM]	IC50 [3] [µM]	IC50 [2] [µM]	Structure (SMILES)
0.613	6.66	79.3	–	CC1(c2ccc([C@@H](NC(=O)[C@@H]3C[C@@H](F)CN3C(=O)CN3CCN(C(=O)OCC(F)(F)F)CC3=O)c3ccccc3)cc2F)CC1 [Compound 578, 2,2,2-trifluoroethyl 4-{2-[(2S,4R)-4-fluoro-2-{[(S)-[3-fluoro-4-(1-methylcyclopropyl)phenyl](phenyl)methyl]carbamoyl}pyrrolidin-1-yl]-2-oxoethyl}-3-oxopiperazine-1-carboxylate]
0.269	3.92	> 100	–	CC1(c2ccc([C@@H](NC(=O)[C@@H]3C[C@@H](F)CN3C(=O)CC3C(=O)Nc4ccccc43)c3ccccc3)cc2F)CC1 (stereo partly drawn) [Compound 581, (2S,4R)-4-fluoro-N-[(S)-[3-fluoro-4-(1-methylcyclopropyl)phenyl](phenyl)methyl]-1-[2-(2-oxo-2,3-dihydro-1H-indol-3-yl)acetyl]pyrrolidine-2-carboxamide]
0.022	–	> 100	0.2	CC(C(=O)N1C[C@H](F)C[C@H]1C(=O)N[C@@H](c1ccccc1)c1ccc(C2(C)CC2)c(F)c1)n1cnc2ccccc21 (single isomer, unassigned) [Compound 574, (2S,4R)-1-[(2S) or 2R)-2-(1H-1,3-benzodiazol-1-yl)propanoyl]-4-fluoro-N-[(S)-[3-fluoro-4-(1-methylcyclopropyl)phenyl](phenyl) methyl]pyrrolidine-2-carboxamide]
0.085	1.45	> 100	–	Cn1nc(CC(=O)N2C[C@H](F)C[C@H]2C(=O)N[C@@H](c2ccccc2)c2ccc(C3CC3)c(F)n2)n(C)c1=O [Compound 722, (2S,4R)-N-[(S)-(5-cyclopropyl-6-fluoropyridin-2-yl)(phenyl)methyl]-1-[2-(1,4-dimethyl-5-oxo-4,5-dihydro-1H-1,2,4-triazol-3-yl)acetyl]-4-fluoropyrrolidine-2-carboxamide]
0.046	0.72	> 100	–	O=C(N[C@@H](c1ccccc1)c1ccc(C2CC2)c(F)n1)[C@@H]1C[C@@H](F)CN1C(=O)Cn1cccn1 [Compound 723, (2S,4R)-N-[(S)-(5-cyclopropyl-6-fluoropyridin-2-yl)(phenyl)methyl]-4-fluoro-1-[2-(1H-pyrazol-1-yl)acetyl]pyrrolidine-2-carboxamide]
0.176	13.6	> 100	–	CC(C)c1ccc(C(NC(=O)[C@@H]2C[C@@H](F)CN2C(=O)Cc2cnn[nH]2)c2ccn3cncc3c2)nc1F (single isomer, unassigned) [Compound 631, (2S,4R)-4-fluoro-N-[(S) or (R)-[6-fluoro-5-(propan-2-yl)pyridin-2-yl]({imidazo[1,5-a]pyridin-7-yl})methyl]-1-[2-(1H-1,2,3-triazol-5-yl)acetyl]pyrrolidine-2-carboxamide]

Further lines, the molecule ahead of its results:

Structure (SMILES)	IC50 [1] [µM]	IC50 ([2]; Homo sapiens, HeLa, 24 h) [µM]	IC50 [3] [µM]	IC50 [2] [µM]
O=C(N[C@@H](c1ccccc1)c1ccc(C2CC(F)(F)C2)cn1)[C@@H]1C[C@@H](F)CN1C(=O)Cc1ncco1 [Compound 539, (2S,4R)-N-[(S)-[5-(3,3-difluorocyclobutyl)pyridin-2-yl] (phenyl)methyl]-4-fluoro-1-[2-(1,3-oxazol-2-yl)acetyl] pyrrolidine-2-carboxamide]	0.068	0.96	> 100	–
CC1(c2ccc([C@@H](NC(=O)[C@@H]3C[C@@H](F)CN3C(=O)CN3CC(=O)NCC3=O)c3ccccc3)cc2F)CC1 [Compound 572, (2S,4R)-1-[2-(2,5-dioxopiperazin-1-yl)acetyl]-4-fluoro-N-[(S)-[3-fluoro-4-(1-methylcyclopropyl)phenyl](phenyl)methyl]pyrrolidine-2-carboxamide]	0.205	3.6	> 100	–
O=C(N[C@@H](c1ccccc1)c1ccc(C2CC(F)(F)C2)cn1)[C@@H]1C[C@@H](F)CN1C(=O)CNC(=O)N1CCC1 [Compound 533, (2S,4R)-1-{2-[(azetidine-1-carbonyl)amino]acetyl}-N-[(S)-[5-(3,3-difluorocyclobutyl)pyridin-2-yl](phenyl)methyl]-4-fluoropyrrolidine-2-carboxamide]	0.043	1.21	> 100	–
CC(C)c1ccc([C@@H](NC(=O)[C@@H]2C[C@@H](F)CN2C(=O)Cn2ncc(N3CCC3)n2)c2ccccc2)nc1 [Compound 276, (2S,4R)-1-{2-[4-(azetidin-1-yl)-2H-1,2,3-triazol-2-yl]acetyl}-4-fluoro-N-[(S)-phenyl[5-(propan-2-yl)pyridin-2-yl]methyl]pyrrolidine-2-carboxamide]	0.02	0.4	> 100	–
CC(C)c1ccc([C@@H](NC(=O)[C@@H]2C[C@@H](F)CN2C(=O)CNC(=O)N2CCN(CC3CC3)CC2)c2ccccc2)nc1 [Compound 282, 4-(cyclopropylmethyl)-N-{2-[(2S,4R)-4-fluoro-2-{[(S)-phenyl[5-(propan-2-yl)pyridin-2-yl]methyl]carbamoyl}pyrrolidin-1-yl]-2-oxoethyl}piperazine-1-carboxamide]	0.049	4.18	> 100	–
CC(C)c1ccc([C@@H](NC(=O)[C@@H]2C[C@@H](F)CN2C(=O)Cc2[nH]nnc2C(F)(F)F)c2ccccc2)nc1 [Compound 268, (2S,4R)-4-fluoro-N-[(S)-phenyl[5-(propan-2-yl)pyridin-2-yl]methyl]-1-{2-[4-(trifluoromethyl)-1H-1,2,3-triazol-5-yl]acetyl}pyrrolidine-2-carboxamide]	0.018	0.83	> 100	–
O=C(N[C@@H](c1ccccc1)c1ccc(C2CC2)c(F)c1)[C@@H]1C[C@@H](F)CN1C(=O)COC(=O)N1CCN(CC(F)(F)F)CC1 [Compound 446, 2-[(2S,4R)-2-{[(S)-(4-cyclopropyl-3-fluorophenyl)(phenyl)methyl]carbamoyl}-4-fluoropyrrolidin-1-yl]-2-oxoethyl 4-(2,2,2-trifluoroethyl)piperazine-1-carboxylate]	0.098	2.19	> 100	–
CC(C)c1ccc([C@@H](NC(=O)[C@@H]2C[C@@H](F)CN2C(=O)Cn2ncc(N3CC(F)(F)C3)n2)c2ccccc2)nc1 [Compound 277, (2S,4R)-1-{2-[4-(3,3-difluoroazetidin-1-yl)-2H-1,2,3-triazol-2-yl]acetyl}-4-fluoro-N-[(S)-phenyl[5-(propan-2-yl)pyridin-2-yl]methyl]pyrrolidine-2-carboxamide]	0.031	0.65	> 100	–
CC(=O)N1C[C@H]2CCC[C@@H](C(=O)N3C[C@H](F)C[C@H]3C(=O)N[C@@H](c3ccccc3)c3ccc(C(C)C)cc3)[C@H]2C1 [Compound 183, (2S,4R)-1-[(3aS,4R,7aS)-2-acetyl-octahydro-1H-isoindole-4-carbonyl]-4-fluoro-N-[(S)-phenyl[4-(propan-2-yl)phenyl]methyl]pyrrolidine-2-carboxamide]	0.041	0.93	> 100	–
CC(C)c1ccc([C@@H](NC(=O)[C@@H]2C[C@@H](F)CN2C(=O)Cn2nnnc2C(F)F)c2ccccc2)nc1F [Compound 400, (2S,4R)-1-{2-[5-(difluoromethyl)-1H-1,2,3,4-tetrazol-1-yl]acetyl}-4-fluoro-N-[(S)-[6-fluoro-5-(propan-2-yl)pyridin-2-yl](phenyl)methyl] pyrrolidine-2-carboxamide]	0.012	0.17	> 100	–
CNC(=O)NCC(=O)N1C[C@H](F)C[C@H]1C(=O)N[C@@H](c1ccccc1)c1ccc(C(C)C)cn1 [Compound 261, (2S,4R)-4-fluoro-1-{2-[(methylcarbamoyl)amino]acetyl}-N-[(S)-phenyl[5-(propan-2-yl)pyridin-2-yl]methyl]pyrrolidine-2-carboxamide]	0.059	1.8	> 100	–
CC(C)c1ccc([C@@H](NC(=O)[C@@H]2C[C@@H](F)CN2C(=O)Cc2ccc3ncnn3c2)c2ccccc2)cc1F [Compound 358, (2S,4R)-4-fluoro-N-[(S)-[3-fluoro-4-(propan-2-yl)phenyl](phenyl)methyl]-1-(2-{[1,2,4]triazolo[1,5-a]pyridin-6-yl}acetyl)pyrrolidine-2-carboxamide]	0.011	0.19	> 100	–
CC(C)c1ccc([C@@H](NC(=O)[C@@H]2C[C@@H](F)CN2C(=O)Cn2cnnn2)c2ccccc2)nc1 [Compound 252, (2S,4R)-4-fluoro-N-[(S)-phenyl[5-(propan-2-yl)pyridin-2-yl]methyl}-1-[2-(1H-1,2,3-tetrazol-1-yl)acetyl]pyrrolidine-2-carboxamide]	0.186	2.48	> 100	–
CC(C)c1ccc([C@@H](NC(=O)[C@@H]2C[C@@H](F)CN2C(=O)Cc2cccn3c(=O)[nH]nc23)c2ccccc2)nc1F [Compound 391, (2S,4R)-4-fluoro-N-[(S)-[6-fluoro-5-(propan-2-yl)pyridin-2-yl](phenyl)methyl]-1-(2-{3-oxo-2H,3H-[1,2,4]triazolo[4,3-a]pyridin-8-yl}acetyl) pyrrolidine-2-carboxamide]	0.006	0.15	89.3	–
